Measured values from patent US6486171B2, “Piperidine compounds” (Les Laboratoires Servier, priority 1999, dated 2002).
Counter-ions that a name gives are not always drawn.

Assays:
[1] = biological target: T1, serotonin reuptake sites (Rattus norvegicus, UniProt P31652); assay: Affinity for serotonin reuptake sites, [3H]-paroxetine competition; type: binding; conditions: rat frontal cortex membranes, read-out: pKi, serotonin reuptake sites (converted)
T1 construct: The membranes are prepared from rat frontal cortex; from tissue; host or cells: rat frontal cortex membranes
Method: The affinity was determined by competition experiments using [^3H]-paroxetine (NEN, Les Ulis, France). The membranes are prepared from rat frontal cortex and are incubated in triplicate for 2 hours at 25° C. with 1.0 nM [^3H]-paroxetine and cold ligand in a final volume of 0.4 ml. The incubation buffer contains […] TRIS-HCl (pH 7.4), 120 mM NaCl and 5 mM KCl. The non-specific binding is determined using 10 μM citalopram. At the end of the incubation, the incubation medium is filtered and washed three times with 5 ml of cooled buffer. The radioactivity retained on the filters is determined by liquid scintillation counting. The binding isotherms are analysed by non-linear regression to determine the IC50 values. Those values are converted into a dissociation constant (Ki) using the Cheng-Prusoff equation: […]
wherein L is the concentration of [^3H]-paroxetine and Kd is the dissociation constant of [^3H]-paroxetine from the serotonin reuptake site (0.13 nM). The results are expressed in pKi.

[2] = biological target: T2, 5-HT1A receptors (Homo sapiens, UniProt P08908); assay: Affinity for 5-HT1A receptors, [3H]-8-OH-DPAT competition; type: binding; conditions: membranes from CHO cells transfected with 5HT1A receptor, read-out: pKi, 5-HT1A receptor (converted)
T2 construct: expressed in transfected cells; host or cells: CHO cells
T2 sequence (P08908 1-422): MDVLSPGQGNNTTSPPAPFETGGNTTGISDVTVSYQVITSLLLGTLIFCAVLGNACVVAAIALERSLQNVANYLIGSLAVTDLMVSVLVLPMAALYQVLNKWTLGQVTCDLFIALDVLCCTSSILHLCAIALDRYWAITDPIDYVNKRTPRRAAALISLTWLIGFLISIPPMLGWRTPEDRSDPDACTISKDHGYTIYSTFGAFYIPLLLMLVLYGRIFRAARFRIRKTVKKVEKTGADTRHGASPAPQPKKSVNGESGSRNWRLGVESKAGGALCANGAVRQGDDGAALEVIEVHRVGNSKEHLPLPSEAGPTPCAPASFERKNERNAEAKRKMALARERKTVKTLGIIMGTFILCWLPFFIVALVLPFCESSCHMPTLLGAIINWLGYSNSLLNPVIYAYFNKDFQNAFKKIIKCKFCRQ
Method: The affinity was determined by competition experiments using [^3H]-8-OH-DPAT (NEN, Les Ulis, France). The membranes, prepared from CHO cells transfected with 5HT1A receptor, were prepared as described in Neuropharmacol., 1997, 36, 451-459. The membranes were incubated in triplicate for two and a half hours at 25° C. with 0.4 nM [^3H]-8-OH-DPAT and cold ligand in a final volume of 1.0 ml. The incubation buffer contains 50 mM HEPES-NaOH (pH 7.4) and 5 mM MgCl2. The non-specific binding is determined using 10 μM 5-HT. At the end of the incubation, the incubation medium is filtered through filters impregnated with 0.1% polyethyleneimine and washed three times with 5 ml of cooled buffer. The radioactivity retained on the filters is determined by liquid scintillation counting. The binding isotherms are analysed by non-linear regression to determine the IC50 values. Those values are converted into a dissociation constant (Ki) using the Cheng-Prusoff equation: […]
wherein L is the concentration of [^3H]-8-OH-DPAT and Kd is the dissociation constant of [^3H]-8-OH-DPAT from the 5HT1A receptor (0.65 nM). The results are expressed in pKi.

[3] = test system: serotonin level; assay: Microdialysis experiment in the rat (frontal cortex); type: in vivo; conditions: 10 mg/kg subcutaneously, cingulate frontal cortex dialysate
Method: Rats are anaesthetised with pentobarbital (60 mg/kg i.p.). They are placed in a Kopf stereotactic device and the cannula guide is implanted in the cingulate frontal cortex in accordance with the coordinates described in the Paxinos and Watson atlas (1982) as follows: AP=+2.2; L=±0.6; DV=−0.2. The rats are placed in separate cages and are not used in dialysis until 5 days later. […] The probe is perfused at a flow rate of 1 μl/min. with a solution of 147.2 mM NaCl, 4 mM KCl and 2.3 mM CaCl2 adjusted to pH 7.3 with a phosphate buffer (0.1 M). Two hours after implantation, samples are collected every 20 minutes for 4 hours. Three baseline samples are taken before administration of the products to be tested. The rats are left in their individual cages for the whole of the experiment. When the experiment is finished, the rats are decapitated and the brain is removed and frozen in isopentane. […]
The simultaneous quantification of dopamine, norepinephrine and serotonin is carried out as follows: 20 μl dialysis samples are each diluted with 20 μl of mobile phase (NaH2PO4: 75 mM; EDTA: 20 μM; sodium 1-decanesulphonate: 1 mM; methanol: 17.5%; triethylamine: 0.01%; pH: 5.7) and 33 μl samples are analysed by HPLC using a reverse phase column thermostatically maintained at 45° C. and quantified by means of a coulometric detector. […]

[4] = test system: aggressiveness in isolated mice; assay: Test of aggressiveness in isolated mice; type: in vivo; conditions: male CD mice, treatment 30 minutes before test
Description: This test allows the evaluation of the intraspecies anti-aggressive activity of a product in mice that have been kept in isolation for several months. The test uses male CD mice (Charles River) weighing from 22 to 25 g. On their arrival, the animals are isolated in individual opaque black cages (23×14×13 cm) with a grill lid, and are housed for a prolonged period (approximately six months) in the experimentation room. The selection of aggressive pairs of mice that will be used for an extended period in the study commences after the animals have been isolated for one month. Once or twice per week a mouse from another cage (intruder) is placed in the cage of a (resident) mouse and the two animals are observed to see if they attack one another (sniffing, pursuing, nibbling, biting) during that trial. At the end of the trial (maximum duration 10 minutes), each mouse is isolated again in its own cage. If attacks have occurred, the same pair will be tested again in the next trial; if there have been no attacks, each mouse of that pair will be placed in the presence of another mouse in the subsequent trial. Thus, in the course of successive trials carried out at a rate of 1 or 2 per week, definitive pairs of mice that will be used for the experiments are selected. […] The latent period (in seconds) of the first attack and the number and total duration (in seconds) of the attacks are recorded. […]

[5] = test system: marble-burying behaviour of mice; assay: Marble-burying test in mice; type: in vivo; conditions: male NMRI mice, 30 minutes' exploration
Description: This test enables evaluation of the capacity of pharmacological agents to inhibit the spontaneous marble-burying behaviour of mice, the inhibition being predictive of antidepressant and/or anti-impulsive action. Male mice of the NMRI strain (Iffa-Credo, 1'Arbresle, France) weighing from 20 to 25 g on the day of the experiment are placed individually in Macrolon boxes (30×18×19 cm) containing 5 cm of sawdust and covered with a perforated plexiglass plate. Twenty four “tiger's eye” glass marbles are evenly distributed on the sawdust at the periphery of the box. At the end of 30 minutes' free exploration, the animals are removed from the box and the number of buried marbles is counted.

T1 sequence (P31652 whole entry): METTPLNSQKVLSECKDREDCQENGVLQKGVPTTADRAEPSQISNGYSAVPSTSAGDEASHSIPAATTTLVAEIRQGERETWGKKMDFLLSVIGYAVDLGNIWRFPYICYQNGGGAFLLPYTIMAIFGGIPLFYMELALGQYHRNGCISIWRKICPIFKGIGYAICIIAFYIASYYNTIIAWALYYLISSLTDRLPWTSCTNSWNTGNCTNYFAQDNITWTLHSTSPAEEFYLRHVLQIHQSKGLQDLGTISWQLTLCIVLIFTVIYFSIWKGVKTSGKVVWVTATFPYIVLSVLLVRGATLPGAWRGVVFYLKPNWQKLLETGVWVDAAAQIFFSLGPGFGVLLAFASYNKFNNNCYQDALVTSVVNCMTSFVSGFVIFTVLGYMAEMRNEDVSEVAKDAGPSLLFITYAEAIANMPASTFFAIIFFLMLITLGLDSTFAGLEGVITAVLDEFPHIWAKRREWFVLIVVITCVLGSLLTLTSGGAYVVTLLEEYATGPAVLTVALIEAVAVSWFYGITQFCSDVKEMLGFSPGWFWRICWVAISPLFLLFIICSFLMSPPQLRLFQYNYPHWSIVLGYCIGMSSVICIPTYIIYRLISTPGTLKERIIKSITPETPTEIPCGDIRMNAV

c1ccc2cc(CCN3CCN(c4nccc5ccoc45)CC3)ccc2c1 (as salt: fumarate) [Example 30, 7-{4-[2-(2-Naphthyl)ethyl]-1-piperazinyl}furo[2,3-c]pyridine]
melting point: 175 to 181 °C

c1ccc2c(CCN3CCC(c4nccc5occc45)CC3)cccc2c1 [Example 7, 4-{1-[2-(1-Naphthyl)ethyl]-4-piperidinyl}furo[3,2-c]pyridine]
Ki [1]: < 31.6 nM
Ki [2]: < 31.6 nM
increase of the level of serotonin (maximum % of the effect compared with the baseline level defined as 0%) [3]: 140.5±15.2%
Inhibitory Dose 50, aggressiveness in isolated mice [4]: less than 1.5 mg/kg i.p.
Marble-burying in mice, ID50 [5]: 1.64 mg/kg s.c.

CNCCC(Oc1ccc(C(F)(F)F)cc1)c1ccccc1 (centres unmarked) [fluoxetine, reference compound]
Marble-burying in mice, ID50 [5]: 8.03 mg/kg s.c.

c1cc2occc2c(N2CCN(CCc3ccc4c(c3)CCO4)CC2)n1 [Example 11, 4-{4-[2-(2,3-Dihydrobenzofuran-5-yl)ethyl]-1-piperazinyl}furo[3,2-c]pyridine]
Marble-burying in mice, ID50 [5]: 0.94 mg/kg s.c.
